≈ marks a conversion by molar mass, not a printed value. Like-named read-outs stand apart in the source and are kept apart here.
Assays:
L. braziliensis PER006 = test: Activity against macrophages infected with Leishmania amastigotes; conditions: Leishmania braziliensis, Macrophage, read-out: IC50 L. braziliensis PER006
[1] = system: several cell lines (Panel/Cell Line); test: GI50, TGI and LC50 of compound II-21 for several cell lines (Table 12)

`C(=N/Nc1ncnc2sc3c(c12)CCCC3)/c1ccccn1` [II-21] gave an IC50 (L. braziliensis PER006) of 0.19 µg/mL (≈ 0.614 µM), a GI50 ([1]; 48 h, Leukemia, SR, 48-h exposure) of 368 nM and a GI50 ([1]; 48 h, Melanoma, M14, 48-h exposure) of 246 nM. The GI50 ([1]; 48 h, Prostate Cancer, PC-3, 48-h exposure) was 431 nM, the CC50 ([1]; 48 h, read-out: LC50 (M), Leukemia, SR, 48-h exposure) was greater than 0.0001 M and the CC50 ([1]; 48 h, read-out: LC50 (M), Melanoma, M14, 48-h exposure) was 3.34e-05 M. The CC50 ([1]; 48 h, read-out: LC50 (M), Prostate Cancer, PC-3, 48-h exposure) was greater than 0.0001 M, the “TGI” value ([1]; Breast Cancer, BT-549, 48-h exposure) was 28700 nM and the “TGI” value ([1]; Breast Cancer, HS 578T, 48-h exposure) was 23900 nM. For the same compound, the “TGI” value ([1]; Breast Cancer, MCF7, 48-h exposure) was 15300 nM, the “TGI” value ([1]; Breast Cancer, MDA-MB-231/ATCC, 48-h exposure) was 29700 nM and the “TGI” value ([1]; Breast Cancer, MDA-MB-468, 48-h exposure) was 505 nM. For the same compound, the “TGI” value ([1]; Breast Cancer, T-47D, 48-h exposure) was 28000 nM, the “TGI” value ([1]; CNS Cancer, SF-268, 48-h exposure) was 15100 nM and the “TGI” value ([1]; CNS Cancer, SF-295, 48-h exposure) was 12100 nM. For the same compound, the “TGI” value ([1]; CNS Cancer, SF-539, 48-h exposure) was 3840 nM, the “TGI” value ([1]; CNS Cancer, SNB-19, 48-h exposure) was 34100 nM and the “TGI” value ([1]; CNS Cancer, SNB-75, 48-h exposure) was 14700 nM. The “TGI” value ([1]; CNS Cancer, U251, 48-h exposure) was 12100 nM, the “TGI” value ([1]; Colon Cancer, COLO 205, 48-h exposure) was 14700 nM and the “TGI” value ([1]; Colon Cancer, HCC-2998, 48-h exposure) was 22900 nM. For the same compound, the “TGI” value ([1]; Colon Cancer, HCT-15, 48-h exposure) was 27000 nM, the “TGI” value ([1]; Colon Cancer, HCT-116, 48-h exposure) was 14200 nM and the “TGI” value ([1]; Colon Cancer, HT29, 48-h exposure) was 15100 nM. For the same compound, the “TGI” value ([1]; Colon Cancer, KM12, 48-h exposure) was 12700 nM, the “TGI” value ([1]; Colon Cancer, SW-620, 48-h exposure) was 17900 nM and the GI50 ([1]; Homo sapiens, 786-0, 48 h, Renal Cancer, 786-0, 48-h exposure) was 333 nM. The CC50 ([1]; Homo sapiens, 786-0, 48 h, read-out: LC50 (M), Renal Cancer, 786-0, 48-h exposure) was 4.44e-05 M, the GI50 ([1]; Homo sapiens, A498, 48 h, Renal Cancer, A498, 48-h exposure) was 428 nM and the CC50 ([1]; Homo sapiens, A498, 48 h, read-out: LC50 (M), Renal Cancer, A498, 48-h exposure) was 3.72e-05 M. The GI50 ([1]; Homo sapiens, A549, 48 h, Non-Small Cell Lung Cancer, A549/ATCC, 48-h exposure) was 389 nM, the CC50 ([1]; Homo sapiens, A549, 48 h, read-out: LC50 (M), Non-Small Cell Lung Cancer, A549/ATCC, 48-h exposure) was 7.13e-05 M and the GI50 ([1]; Homo sapiens, ACHN, 48 h, Renal Cancer, 48-h exposure) was 313 nM. The CC50 ([1]; Homo sapiens, ACHN, 48 h, read-out: LC50 (M), Renal Cancer, ACHN, 48-h exposure) was greater than 0.0001 M, the GI50 ([1]; Homo sapiens, BT-549, 48 h, Breast Cancer, BT-549, 48-h exposure) was 394 nM and the CC50 ([1]; Homo sapiens, BT-549, 48 h, read-out: LC50 (M), Breast Cancer, BT-549, 48-h exposure) was greater than 0.0001 M. The GI50 ([1]; Homo sapiens, CAKI-1, 48 h, Renal Cancer, CAKI-1, 48-h exposure) was 313 nM, the CC50 ([1]; Homo sapiens, CAKI-1, 48 h, read-out: LC50 (M), Renal Cancer, CAKI-1, 48-h exposure) was greater than 0.0001 M and the GI50 ([1]; Homo sapiens, CCRF-CEM, 48 h, Leukemia, 48-h exposure) was 242 nM. It also gave a CC50 ([1]; Homo sapiens, CCRF-CEM, 48 h, read-out: LC50 (M), Leukemia, CCRF-CEM, 48-h exposure) greater than 0.0001 M, a GI50 ([1]; Homo sapiens, COLO 205, 48 h, Colon Cancer, COLO 205, 48-h exposure) of 315 nM and a CC50 ([1]; Homo sapiens, COLO 205, 48 h, read-out: LC50 (M), Colon Cancer, COLO 205, 48-h exposure) of 5.45e-05 M. The GI50 ([1]; Homo sapiens, DU-145, 48 h, Prostate Cancer, DU-145, 48-h exposure) was 410 nM, the CC50 ([1]; Homo sapiens, DU-145, 48 h, read-out: LC50 (M), Prostate Cancer, DU-145, 48-h exposure) was 5.16e-05 M and the GI50 ([1]; Homo sapiens, EKVX, 48 h, Non-Small Cell Lung Cancer, 48-h exposure) was 317 nM. For the same compound, the CC50 ([1]; Homo sapiens, EKVX, 48 h, read-out: LC50 (M), Non-Small Cell Lung Cancer, EKVX, 48-h exposure) was greater than 0.0001 M, the GI50 ([1]; Homo sapiens, HCC 2998, 48 h, Colon Cancer, HCC-2998, 48-h exposure) was 10000 nM and the CC50 ([1]; Homo sapiens, HCC 2998, 48 h, read-out: LC50 (M), Colon Cancer, HCC-2998, 48-h exposure) was 5.26e-05 M. For the same compound, the GI50 ([1]; Homo sapiens, HCT-15, 48 h, Colon Cancer, HCT-15, 48-h exposure) was 450 nM, the CC50 ([1]; Homo sapiens, HCT-15, 48 h, read-out: LC50 (M), Colon Cancer, HCT-15, 48-h exposure) was greater than 0.0001 M and the GI50 ([1]; Homo sapiens, HCT-116, 48 h, Colon Cancer, HCT-116, 48-h exposure) was 166 nM. The CC50 ([1]; Homo sapiens, HCT-116, 48 h, read-out: LC50 (M), Colon Cancer, HCT-116, 48-h exposure) was 6.74e-05 M, the GI50 ([1]; Homo sapiens, HL-60, 48 h, Leukemia, HL-60(TB), 48-h exposure) was 120 nM and the CC50 ([1]; Homo sapiens, HL-60, 48 h, read-out: LC50 (M), Leukemia, HL-60(TB), 48-h exposure) was greater than 0.0001 M. It also gave a GI50 ([1]; Homo sapiens, HOP-62, 48 h, Non-Small Cell Lung Cancer, HOP-62, 48-h exposure) of 395 nM, a CC50 ([1]; Homo sapiens, HOP-62, 48 h, read-out: LC50 (M), Non-Small Cell Lung Cancer, HOP-62, 48-h exposure) greater than 0.0001 M and a GI50 ([1]; Homo sapiens, HOP-92, 48 h, Non-Small Cell Lung Cancer, HOP-92, 48-h exposure) of 417 nM. For the same compound, the CC50 ([1]; Homo sapiens, HOP-92, 48 h, read-out: LC50 (M), Non-Small Cell Lung Cancer, HOP-92, 48-h exposure) was greater than 0.0001 M, the GI50 ([1]; Homo sapiens, HT-29, 48 h, Colon Cancer, HT29, 48-h exposure) was 180 nM and the CC50 ([1]; Homo sapiens, HT-29, 48 h, read-out: LC50 (M), Colon Cancer, HT29, 48-h exposure) was 4.49e-05 M. For the same compound, the GI50 ([1]; Homo sapiens, Hs-578T, 48 h, Breast Cancer, HS 578T, 48-h exposure) was 748 nM, the CC50 ([1]; Homo sapiens, Hs-578T, 48 h, read-out: LC50 (M), Breast Cancer, HS 578T, 48-h exposure) was greater than 0.0001 M and the GI50 ([1]; Homo sapiens, IGROV-1, 48 h, Ovarian Cancer, IGROV1, 48-h exposure) was 450 nM. It also gave a CC50 ([1]; Homo sapiens, IGROV-1, 48 h, read-out: LC50 (M), Ovarian Cancer, IGROV1, 48-h exposure) greater than 0.0001 M, a GI50 ([1]; Homo sapiens, K562, 48 h, Leukemia, K-562, 48-h exposure) of 284 nM and a CC50 ([1]; Homo sapiens, K562, 48 h, read-out: LC50 (M), Leukemia, K-562, 48-h exposure) greater than 0.0001 M. It also gave a GI50 ([1]; Homo sapiens, KM12, 48 h, Colon Cancer, KM12, 48-h exposure) of 515 nM, a CC50 ([1]; Homo sapiens, KM12, 48 h, read-out: LC50 (M), Colon Cancer, KM12, 48-h exposure) of 3.81e-05 M and a GI50 ([1]; Homo sapiens, LOX IMVI, 48 h, Melanoma, 48-h exposure) of 256 nM. For the same compound, the CC50 ([1]; Homo sapiens, LOX IMVI, 48 h, read-out: LC50 (M), Melanoma, LOX IMVI, 48-h exposure) was 3.48e-05 M, the GI50 ([1]; Homo sapiens, MCF7, 48 h, Breast Cancer, MCF7, 48-h exposure) was 336 nM and the CC50 ([1]; Homo sapiens, MCF7, 48 h, read-out: LC50 (M), Breast Cancer, MCF7, 48-h exposure) was 8e-05 M. For the same compound, the GI50 ([1]; Homo sapiens, MDA-MB-231, 48 h, Breast Cancer, MDA-MB-231/ATCC, 48-h exposure) was 603 nM, the CC50 ([1]; Homo sapiens, MDA-MB-231, 48 h, read-out: LC50 (M), Breast Cancer, MDA-MB-231/ATCC, 48-h exposure) was greater than 0.0001 M and the GI50 ([1]; Homo sapiens, MDA-MB-435, 48 h, Melanoma, MDA-MB-435, 48-h exposure) was 477 nM. It also gave a CC50 ([1]; Homo sapiens, MDA-MB-435, 48 h, read-out: LC50 (M), Melanoma, MDA-MB-435, 48-h exposure) greater than 0.0001 M, a GI50 ([1]; Homo sapiens, MDA-MB-468, 48 h, Breast Cancer, MDA-MB-468, 48-h exposure) of 200 nM and a CC50 ([1]; Homo sapiens, MDA-MB-468, 48 h, read-out: LC50 (M), Breast Cancer, MDA-MB-468, 48-h exposure) of 4.1e-05 M. The GI50 ([1]; Homo sapiens, MOLT-4, 48 h, Leukemia, MOLT-4, 48-h exposure) was 261 nM, the CC50 ([1]; Homo sapiens, MOLT-4, 48 h, read-out: LC50 (M), Leukemia, MOLT-4, 48-h exposure) was greater than 0.0001 M and the GI50 ([1]; Homo sapiens, Malme-3M, 48 h, Melanoma, 48-h exposure) was 275 nM. The CC50 ([1]; Homo sapiens, Malme-3M, 48 h, read-out: LC50 (M), Melanoma, MALME-3M, 48-h exposure) was 5.14e-05 M, the GI50 ([1]; Homo sapiens, NCI-H23, 48 h, Non-Small Cell Lung Cancer, NCI-H23, 48-h exposure) was 705 nM and the CC50 ([1]; Homo sapiens, NCI-H23, 48 h, read-out: LC50 (M), Non-Small Cell Lung Cancer, NCI-H23, 48-h exposure) was greater than 0.0001 M. For the same compound, the GI50 ([1]; Homo sapiens, NCI-H226, 48 h, Non-Small Cell Lung Cancer, NCI-H226, 48-h exposure) was 385 nM, the CC50 ([1]; Homo sapiens, NCI-H226, 48 h, read-out: LC50 (M), Non-Small Cell Lung Cancer, NCI-H226, 48-h exposure) was greater than 0.0001 M and the GI50 ([1]; Homo sapiens, NCI-H322M, 48 h) was 216 nM. The CC50 ([1]; Homo sapiens, NCI-H322M, 48 h, read-out: LC50 (M)) was greater than 0.0001 M and the GI50 ([1]; Homo sapiens, NCI-H460, 48 h, Non-Small Cell Lung Cancer, NCI-H460, 48-h exposure) was 304 nM.

— US9061984B2 (University of Louisville Research Foundation, Inc., priority 2008, dated 2015)
